Experimental data as given in US6916905B2, “Dmt-Tic di-and tri-peptidic derivatives and related compositions and methods of use” (The United States of America as represented by the …, priority 2000, dated 2005).
“Also recorded” adds a separate entry of the source. Where two headings read alike, the source gives them in different places. Non-standard residues stand in square brackets, D forms with d. Residues, ends and D or L forms follow the SMILES beside them. *: point of attachment. Dmt = Cc1cc(O)cc(C)c1C[C@H](N)C(=O)O; Tic = O=C(O)[C@@H]1Cc2ccccc2CN1; NHtBu = CC(C)(C)N*

Columns and labels:
[1] = biological target: T1, μ-opioid receptors (Rattus norvegicus, UniProt P33535); experiment: Rat brain synaptosome (P2) binding, [3H]DAGO (Example 47)
T1 construct: assayed with a rat brain synaptosomal preparation (P2); from tissue; host or cells: rat brain P2 synaptosomes

[2] = biological target: hMDR-1 (Homo sapiens, UniProt P08183); experiment: Calcein AM assay for Pgp in hMDR-1 transfected G-185 fibroblasts (Example 49); details: for inhibition of hMDR-1 (Pgp), in words: calcein fluorescence; for order of inhibition of hMDR-1: rank within amide series
Procedure: Stably transfected G-185 fibroblasts containing hMDR-1 and NIH 3T3 cell lines were grown to confluent monolayers in DMEM containing 4.5 g glucose/1, 10% fetal calf serum, L-glutamine, penicillin (50 units/ml), streptomycin (50 μg/ml) and 1 mM sodium pyruvate in 5% CO2 at 37° C. G-185 cells were maintained in […] colchicine.
The assay for Pgp is based on the diffusion of non-fluorescent calcein AM across the cell membrane. Calcein AM is then hydrolyzed and accumulates as the fluorescent calcein. In transfected cells expressing excess hMDR-1, Pgp extrudes calcein AM from the cell before hydrolysis occurs; inhibition of hMDR-1 results in the accumulation of intracellular calcein. Transfected G-185 cells and the NIH 3T3 cells were analyzed in triplicate using seven graded dosages of verapamil or the opioid peptides in 96-well plates. Cells (2.5×10^6/well) were incubated in 100 μl culture medium for 15 min at 37° C. and 50 μl of 1 μM calcein AM in PBS, plus 50 μl of verapamil or one of the present inventive compounds in PBS, or 100 μl of PBS alone (control) were added. Cells were mixed and incubated for 15 min at 37° C., then centrifuged for 5 min at 2,000×g, and then washed three times in 200 μl PBS. Cell pellets were resuspended in 200 μl PBS and transferred to white Microfluor Plates (Nunc, Copenhagen, Denmark) in order to measure calcein-specific fluorescence (494 nm absorption; 517 nm emission). Internal controls were carried out with each experiment using verapamil and PBS in order to compare the consistency between cell preparations. Means±SE (error bars) were determined and plotted using Prism™ (GraphPad, San Diego, Calif.).

[3] = biological target: T2, δ receptors (Mus musculus, UniProt P32300)
Procedure: (§1) The functional bioactivity of the present inventive compounds was assessed using standard functional bioassays of δ and μ activity in MVD and GPI (Salvadori et al. (1995), supra; and Salvadori et al., J. Med. Chem. 36: 3748-3756 (1993)). […] Dose-response curves were obtained (Salvadori et al. (1995), supra) for both tissues. […] Data were derived from at least four independent tissue samples and dose-response curves from which the pA2 values were determined (Salvadori et al. (1997), supra) according to Arunlakshana and Schild (Br. J. Pharmacol. 14: 48-58 (1959)).

[4] = biological target: μ receptors (Cavia porcellus, UniProt P97266); experiment: Guinea pig ileum (GPI) functional bioassay (Example 48); details: for GPI Ke: μ antagonism
Procedure: as §1

[5] = biological target: T3, δ-opioid receptors (Rattus norvegicus, UniProt P33533); experiment: Rat brain synaptosome (P2) binding, δ antagonist [3H]N,N(CH3)2-Dmt-Tic-OH (Example 47); details: for Antagonist K1μ/Kiδ: selectivity, Kiδ from antagonist radioligand [3H]N,N(CH3)2-Dmt-Tic-OH
T3 construct: assayed with a rat brain synaptosomal preparation (P2); from tissue; host or cells: rat brain P2 synaptosomes
Procedure: (§2) Briefly, the agonists [^3H]DPDPE (30-60 Ci/mmol, NEN-DuPont) and [^3H]DAGO (30-60 Ci/mmol, Amersham) were used to label δ and μ sites, respectively, under saturation binding conditions (2 hrs at 22° C.). Excess unlabeled peptide (2 μM) established non-specific binding levels and the labeled membranes were rapidly filtered on Whatman GF/C glass fibre filters, thoroughly washed, dried and measured for radioactivity using CytoScint (ICN, Irvine, Calif.). […] The affinity constants (Ki) were calculated according to Cheng and Prusoff (Biochem. Pharmacol. 22: 3099-3108 (1973)).

[6] = biological target: T3, δ-opioid receptors; experiment: Rat brain synaptosome (P2) binding, agonist [3H]DPDPE (Example 47); details: for Agonist K1μ/Kiδ: selectivity, Kiδ from agonist radioligand [3H]DPDPE; for δ/μ selectivity, in words: from Table II binding
Procedure: as §2

[7] = biological target: T2, δ receptors; experiment: MVD functional pharmacological bioassay (Example 75); set-up: A single MVD was suspended in 4 ml modified Kreb's solution; from tissue; host or cells: mouse vas deferens
[8] = rat brain synaptosomes (P2), mean ± SEM, n in parentheses, read-out: Kiμ (nM) [^3H]DAGO
[9] = MVD pA2 (range), δ antagonism against deltorphin C, mean (range)
[10] = δ antagonism, Ke = antilog of pA2
[11] = rat brain synaptosomes (P2), δ antagonist radioligand, mean ± SEM, n in parentheses, read-out: Kiδ(nM) [^3H]N,N(CH3)2-Dmt-Tic-OH
[12] = rat brain synaptosomes (P2), mean ± SEM, n in parentheses, read-out: Kiδ(nM) [^3H]DPDPE
[13] = MVD Ke(nM), δ antagonism, Ke = antilog of pA2

Sequence of μ receptors (P97266 whole entry, looked up): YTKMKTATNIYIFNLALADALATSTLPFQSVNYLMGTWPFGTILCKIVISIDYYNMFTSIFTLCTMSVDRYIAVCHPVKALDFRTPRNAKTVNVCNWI
T1 sequence (P33535 whole entry): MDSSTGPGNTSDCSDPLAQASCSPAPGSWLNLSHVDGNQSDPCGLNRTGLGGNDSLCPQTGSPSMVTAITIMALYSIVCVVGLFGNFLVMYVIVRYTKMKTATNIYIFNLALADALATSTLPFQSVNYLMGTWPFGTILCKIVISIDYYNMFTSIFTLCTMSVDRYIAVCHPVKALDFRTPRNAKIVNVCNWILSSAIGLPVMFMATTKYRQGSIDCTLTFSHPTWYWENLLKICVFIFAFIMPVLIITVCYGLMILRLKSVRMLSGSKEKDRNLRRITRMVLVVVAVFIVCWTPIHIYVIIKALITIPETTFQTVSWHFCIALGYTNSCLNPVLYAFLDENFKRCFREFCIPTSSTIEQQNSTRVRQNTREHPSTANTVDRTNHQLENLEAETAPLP
Sequence of hMDR-1 (P08183 whole entry): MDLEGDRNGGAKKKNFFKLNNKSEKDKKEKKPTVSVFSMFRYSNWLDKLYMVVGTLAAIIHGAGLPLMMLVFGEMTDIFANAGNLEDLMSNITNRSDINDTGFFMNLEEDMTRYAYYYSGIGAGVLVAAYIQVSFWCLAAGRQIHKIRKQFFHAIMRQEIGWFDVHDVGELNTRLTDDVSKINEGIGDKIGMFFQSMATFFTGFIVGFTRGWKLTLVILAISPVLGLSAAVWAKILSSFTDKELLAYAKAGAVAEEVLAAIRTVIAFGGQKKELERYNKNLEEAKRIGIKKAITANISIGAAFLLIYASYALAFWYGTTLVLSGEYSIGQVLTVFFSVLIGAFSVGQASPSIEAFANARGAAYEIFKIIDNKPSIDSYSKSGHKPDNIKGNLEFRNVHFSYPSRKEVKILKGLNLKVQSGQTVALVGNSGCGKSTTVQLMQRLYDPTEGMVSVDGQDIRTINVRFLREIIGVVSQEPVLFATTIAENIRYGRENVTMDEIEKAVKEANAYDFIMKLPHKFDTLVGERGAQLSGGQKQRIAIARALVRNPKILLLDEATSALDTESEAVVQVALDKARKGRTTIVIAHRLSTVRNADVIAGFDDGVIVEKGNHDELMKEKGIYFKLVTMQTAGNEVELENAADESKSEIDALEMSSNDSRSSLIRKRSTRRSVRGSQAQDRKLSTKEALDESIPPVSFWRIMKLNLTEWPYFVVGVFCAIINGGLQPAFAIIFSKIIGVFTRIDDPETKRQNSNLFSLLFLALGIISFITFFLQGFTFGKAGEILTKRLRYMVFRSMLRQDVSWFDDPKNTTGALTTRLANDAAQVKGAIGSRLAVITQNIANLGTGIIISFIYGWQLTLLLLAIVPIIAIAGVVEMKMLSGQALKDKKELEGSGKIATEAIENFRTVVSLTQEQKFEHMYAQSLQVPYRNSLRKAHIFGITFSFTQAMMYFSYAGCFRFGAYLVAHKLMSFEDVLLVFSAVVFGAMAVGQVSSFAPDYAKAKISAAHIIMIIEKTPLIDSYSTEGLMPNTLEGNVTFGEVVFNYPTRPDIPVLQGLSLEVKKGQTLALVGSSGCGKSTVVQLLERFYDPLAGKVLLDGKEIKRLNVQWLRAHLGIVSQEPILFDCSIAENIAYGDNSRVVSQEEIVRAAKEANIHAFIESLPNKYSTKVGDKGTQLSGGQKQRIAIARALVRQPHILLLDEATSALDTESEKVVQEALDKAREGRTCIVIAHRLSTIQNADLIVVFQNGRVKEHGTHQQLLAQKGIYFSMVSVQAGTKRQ
T3 sequence (P33533 whole entry): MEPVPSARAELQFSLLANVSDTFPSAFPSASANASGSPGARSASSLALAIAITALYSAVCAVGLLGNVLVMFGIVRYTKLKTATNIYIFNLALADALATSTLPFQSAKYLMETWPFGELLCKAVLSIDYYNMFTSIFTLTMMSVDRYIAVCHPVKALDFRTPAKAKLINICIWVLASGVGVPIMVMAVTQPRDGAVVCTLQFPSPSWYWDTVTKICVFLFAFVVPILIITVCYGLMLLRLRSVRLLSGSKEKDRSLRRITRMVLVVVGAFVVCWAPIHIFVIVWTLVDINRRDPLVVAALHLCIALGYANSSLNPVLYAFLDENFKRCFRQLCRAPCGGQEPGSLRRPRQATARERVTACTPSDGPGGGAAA
T2 sequence (P32300 whole entry): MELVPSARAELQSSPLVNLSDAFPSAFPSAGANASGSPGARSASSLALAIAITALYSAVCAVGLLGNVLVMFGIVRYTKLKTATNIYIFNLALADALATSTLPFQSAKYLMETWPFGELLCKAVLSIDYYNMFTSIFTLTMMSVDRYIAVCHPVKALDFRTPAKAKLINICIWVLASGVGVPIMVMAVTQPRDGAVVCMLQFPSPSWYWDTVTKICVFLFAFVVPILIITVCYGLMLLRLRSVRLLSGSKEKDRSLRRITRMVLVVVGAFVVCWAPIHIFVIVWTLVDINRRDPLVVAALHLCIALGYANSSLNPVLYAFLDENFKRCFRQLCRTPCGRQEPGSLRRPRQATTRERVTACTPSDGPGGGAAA

Compound: Cc1cc(O)cc(C)c1C[C@@H](C(=O)N1Cc2ccccc2C[C@H]1C(=O)O)N1CCCCC1 [Compound 3, [des-NH2-α-piperidine-1-yl]-Dmt-Tic-OH]
- Ki [1, 8]: 2040 ± 264 nM
- inhibition of hMDR-1 (Pgp), in words [2]: inactive
- bioactivity on MVD (δ), in words [3]: detrimental for all bioactivity measurements on MVD
- Kb [3, 9]: 49 nM
- MVD Ke [3, 10]: 49 nM
- EC50 [4]: > 10000 nM
- Ki [5, 11]: 0.74 ± 0.3 nM
- Antagonist K1μ/Kiδ [5]: 2755
- Ki [6, 12]: 1.18 ± 0.1 nM
- Agonist K1μ/Kiδ [6]: 1728

Compound: CNC(=O)[C@@H]1Cc2ccccc2CN1C(=O)[C@@H](N)Cc1c(C)cc(O)cc1C [Compound 7, H-Dmt-Tic-NHMe] (H-[Dmt]-[Tic]-NHMe)
- Ki [1, 8]: 85.5 ± 7.7 nM
- inhibition of hMDR-1 (Pgp), in words [2]: inactive
- EC50 [3]: 21200 nM
- bioactivity on MVD (δ), in words [3]: extraordinarily weak δ agonism
- Kb [3, 13]: > 10000 nM
- MVD pA2 (range) ([3]; δ antagonism against deltorphin C, mean (range)): —^d
- EC50 [4]: > 10000 nM
- Kb [4]: 1150 nM
- bioactivity on GPI (μ), in words [4]: low μ antagonism
- GPI Ke [4]: 1.15 µM

Compound: Cc1cc(O)cc(C)c1C[C@H](N)C(=O)N1Cc2ccccc2C[C@H]1C(=O)NC(C)(C)C [Compound 9, H-Dmt-Tic-NH-tBu] (H-[Dmt]-[Tic]-NHtBu)
- Ki [1, 8]: 5.96 ± 0.82 nM
- order of inhibition of hMDR-1 [2]: (compound 9)>>H-Dmt-Tic-NHMe (compound 7) (inactive)
- bioactivity on MVD (δ), in words [3]: highest δ-antagonist functional bioactivities
- Kb [3, 13]: 1.74 nM
- Kb [3, 9]: 5.75 nM
- EC50 [4]: 1040 nM
- Ki [5, 11]: 0.93 ± 0.15 nM
- Antagonist K1μ/Kiδ [5]: 6
- δ/μ selectivity, in words [6]: essentially nonselective
- Ki [6, 12]: 0.43 ± 0.07 nM
- Agonist K1μ/Kiδ [6]: 14

Compound: Cc1cc(O)cc(C)c1C[C@H](N)C(=O)N1Cc2ccccc2C[C@H]1C(=O)NC12CC3CC(CC(C3)C1)C2 [Compound 11, H-Dmt-Tic-NH-1-adamantane]
- Ki [1]: 0.76 ± 0.05 nM
- order of inhibition of hMDR-1 [2]: (compound 11)>H-Dmt-Tic-Ala-NH-1-adamantane (compound 21)
- EC50 [3]: 870 nM
- Kb [3, 13]: > 10000 nM
- EC50 [4]: 36 nM
- bioactivity on GPI (μ), in words [4]: moderate μ agonism
- Ki [5]: 1.01 ± 0.26 nM
- Antagonist K1μ/Kiδ [5]: 0.8
- Ki [6]: 0.26 ± 0.05 nM
- δ/μ selectivity, in words [6]: weakly μ selective
- Agonist K1μ/Kiδ [6]: 3

Compound: Cc1cc(O)cc(C)c1C[C@@H](C(=O)N1Cc2ccccc2C[C@H]1C(=O)NC(C)(C)C)N(C)C [Compound 14, N,N(Me)2-Dmt-Tic-NH-tBu]
- Ki [1, 8]: 226 ± 21 nM
- order of inhibition of hMDR-1 [2]: (compound 14)>H-Dmt-Tic-Ala-NH-tBu (compound 20)
- bioactivity on MVD (δ), in words [3]: modest δ antagonism
- Kb [3, 9]: 14.1 nM
- MVD Ke [3, 10]: 14.1 nM
- EC50 [4]: > 10000 nM
- Kb [4]: 300 nM
- bioactivity on GPI (μ), in words [4]: weak μ antagonism

Compound: Cc1cc(O)cc(C)c1C[C@@H](C(=O)N1Cc2ccccc2C[C@H]1C(=O)NC12CC3CC(CC(C3)C1)C2)N(C)C [Compound 15, N,N(Me)2-Dmt-Tic-NH-1-adamantane]
- Ki [1]: 1.12 ± 0.1 nM
- rise in μ affinity relative to N,N(Me)2-Dmt-Tic-OH [1]: ~2,200 fold
- order of inhibition of hMDR-1 [2]: (compound 15)=H-Dmt-Tic-NH-1-adamantane (compound 11)
- Kb [3, 9]: 0.871 nM
- MVD Ke [3, 10]: 0.87 nM
- EC50 [4]: 16 nM
- bioactivity on GPI (μ), in words [4]: clearly displayed μ agonism
- Ki [5]: 0.12 ± 0.02 nM
- Antagonist K1μ/Kiδ [5]: 9
- Ki [6]: 0.16 ± 0.17 nM
- δ/μ selectivity, in words [6]: essentially nonselective
- Agonist K1μ/Kiδ [6]: 7

Compound: Cc1cc(O)cc(C)c1C[C@H](N)C(=O)N1Cc2ccccc2C[C@H]1C(=O)N[C@@H](C)C(=O)NC(C)(C)C [Compound 20, H-Dmt-Tic-Ala-NH-tBu] (H-[Dmt]-[Tic]-Ala-NHtBu; N-terminus and C-terminus assumed)
- Ki [1, 8]: 4.03 ± 0.21 nM
- order of inhibition of hMDR-1 [2]: (compound 20)>H-Dmt-Tic-NH-tBu (compound 9)
- bioactivity on MVD (δ), in words [3]: highest δ-antagonist functional bioactivities
- Kb [3, 9]: 0.692 nM
- MVD Ke [3, 10]: 0.69 nM
- EC50 [4]: > 10000 nM
- Kb [4]: 174 nM
- GPI Ke [4]: 0.17 µM
- Ki [5, 11]: 0.08 ± 0.02 nM
- Antagonist K1μ/Kiδ [5]: 48
- Ki [6, 12]: 0.066 ± 0.01 nM
- Agonist K1μ/Kiδ [6]: 61

Compound: Cc1cc(O)cc(C)c1C[C@H](N)C(=O)N1Cc2ccccc2C[C@H]1C(=O)N[C@@H](C)C(=O)NC12CC3CC(CC(C3)C1)C2 [Compound 21, H-Dmt-Tic-Ala-NH-1-adamantane]
- Ki [1]: 2.52 ± 0.56 nM
- order of inhibition of hMDR-1 [2]: (compound 21)>>N,N(Me)2-Dmt-Tic-OH (inactive)
- bioactivity on MVD (δ), in words [3]: highest δ-antagonist functional bioactivities
- Kb [3, 9]: 0.513 nM
- MVD Ke [3, 10]: 0.51 nM
- EC50 [4]: 1000 nM

Compound: Cc1cc(O)cc(C)c1C[C@H](N)C(=O)N1Cc2ccccc2C[C@H]1C(=O)NCc1nc2ccccc2[nH]1 [Compound 24, H-Dmt-Tic-NH—CH2-Bid]
- δ activity on MVD, in words [7]: potent δ-agonist activity
- MVD, antagonist activity (pA2) N,N(CH3)2-Dmt-Tic-OH ([7]; pA2 of N,N(CH3)2-Dmt-Tic-OH against the listed δ agonist): 9.70
- MVD, antagonist activity (pA2) naloxone ([7]; pA2 of naloxone against the listed δ agonist): 7.45
- Functional Bioactivity MVD (pEC50) ([7]; δ agonism): 9.90

Compound: C[C@@H](NC(=O)[C@@H](N)Cc1ccc(O)cc1)C(=O)N[C@@H](Cc1ccccc1)C(=O)NCC(=O)N[C@@H](Cc1ccc(O)cc1)C(=O)N1CCC[C@H]1C(=O)N[C@@H](CO)C(N)=O [Dermorphin, H-Tyr-D-Ala-Phe-Gly-Tyr-Pro-Ser-NH2]
- inhibition of hMDR-1 (Pgp), in words [2]: lack of inhibition
- inhibition of hMDR-1 (Pgp), in words ([2]; listed as DER): inactive
- IC50 [4]: 1.82 nM

Compound: Cc1cc(O)cc(C)c1C[C@@H]1NC(=O)[C@@H]2Cc3ccccc3CN2C1=O [cyclo (DMT-Tic), reference compound]
- Kiμ (nM) [^3H]DAGO ([1]; rat brain synaptosomes (P2), mean ± SEM, n in parentheses): no activity
- inhibition of hMDR-1 (Pgp), in words [2]: moderately effective inhibitor
- Antagonist K1μ/Kiδ [5]: no activity
- Ki [6]: 9.58 ± 1.98 nM
- Agonist K1μ/Kiδ [6]: 635 ± 69 (3-5)

Compound: CC(C)[C@H](NC(=O)[C@H](CCC(=O)O)NC(=O)[C@H](Cc1ccccc1)NC(=O)[C@@H](C)NC(=O)[C@@H](N)Cc1ccc(O)cc1)C(=O)N[C@H](C(=O)NCC(N)=O)C(C)C [deltorphin B, H-Tyr-D-Ala-Phe-Glu-Val-Val-Gly-NH2]
- inhibition of hMDR-1 (Pgp), in words [2]: inactive

Compound: Oc1ccc2c3c1O[C@H]1c4[nH]c5ccccc5c4C[C@@]4(O)[C@@H](C2)N(CC2CC2)CC[C@]314 [naltrindole]
- inhibition of hMDR-1 (Pgp), in words [2]: inhibition that dissipated at high concentrations

Compound: COc1ccc(CCN(C)CCCC(C#N)(c2ccc(OC)c(OC)c2)C(C)C)cc1OC (centres unmarked) [verapamil]
- maximum effective dose [2]: 75 to 100 µM

Compound: H-Dmt-Sar-Bid [DSB]
- inhibition of hMDR-1 (Pgp), in words [2]: inactive

Compound: H-Tyr-D-Ala-Gly-N-MePhe-Met(O)-ol [DAMME]
- inhibition of hMDR-1 (Pgp), in words [2]: inactive; also recorded: lack of inhibition

Compound: deltorphin
- inhibition of hMDR-1 (Pgp), in words [2]: lack of inhibition
